From the supplement of paper PMC10307832

How the values were obtained:
Assay in all cases: relative viability (nuclei count vs DMSO), 5 days (fraction); higher = more cells survive
[1] = compound: C1COCCN1C2=NC(=NC3=C2OC4=C3C=CC=N4)C5=CC(=CC=C5)NC(=O)C6=CN=C(C=C6)N + COc1cc2c(Oc3ccc(NC(=O)C4(C(=O)Nc5ccc(F)cc5)CC4)cc3F)ccnc2cc1OCCCN1CCOCC1 [Foretinib] (partner 0.25 µM)
Summary of the method: (§1)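 Relative viability divides the nuclei count in treated wells by that in vehicle wells. Lung cancer cell lines were seeded in 1536-well plates, dosed by pin tool the next day, and fixed and stained after 5 days in one step with final 0.05% Triton X-100, 1% formaldehyde and 1 ug/ml Hoechst. Dosing was a single drug or a fixed anchor-drug dose plus five library-drug doses (not always all listed) in √10 steps, and values are medians of duplicate plates imaged at 4×.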

Entinostat + Tozasertib = compound: Nc1ccccc1NC(=O)c1ccc(CNC(=O)OCc2cccnc2)cc1 [Entinostat] + Cc1cc(Nc2cc(N3CCN(C)CC3)nc(Sc3ccc(NC(=O)C4CC4)cc3)n2)n[nH]1 [Tozasertib] (partner 0.1 µM)
Summary of the method: as §1

SGI-1776 + Pemetrexed = compound: CN1CCC(CNc2ccc3ncc(-c4cccc(OC(F)(F)F)c4)n3n2)CC1 [SGI-1776] + Nc1nc2[nH]cc(CCc3ccc(C(=O)N[C@@H](CCC(=O)O)C(=O)O)cc3)c2c(=O)[nH]1 [Pemetrexed] (partner 0.2 µM)
Summary of the method: as §1

Entinostat + Decitabine = compound: Nc1ccccc1NC(=O)c1ccc(CNC(=O)OCc2cccnc2)cc1 [Entinostat] + Nc1ncn([C@H]2C[C@H](O)[C@@H](CO)O2)c(=O)n1 [Decitabine] (partner 2 µM)
Summary of the method: as §1

Cell Line	relative viability ([1]; first compound 0.02 µM)	relative viability ([1]; first compound 0.06325 µM)	relative viability ([1]; first compound 0.2 µM)	relative viability ([1]; first compound 0.6325 µM)	relative viability ([1]; first compound 2 µM)	relative viability (Entinostat + Tozasertib; first compound 0.02 µM)	relative viability (Entinostat + Tozasertib; first compound 0.06325 µM)	relative viability (Entinostat + Tozasertib; first compound 0.2 µM)	relative viability (Entinostat + Tozasertib; first compound 0.6325 µM)	relative viability (Entinostat + Tozasertib; first compound 2 µM)	relative viability (SGI-1776 + Pemetrexed; first compound 0.08 µM)	relative viability (SGI-1776 + Pemetrexed; first compound 0.8 µM)	relative viability (SGI-1776 + Pemetrexed; first compound 2.53 µM)	relative viability (SGI-1776 + Pemetrexed; first compound 8 µM)	relative viability (Entinostat + Decitabine; first compound 0.02 µM)	relative viability (Entinostat + Decitabine; first compound 0.06325 µM)	relative viability (Entinostat + Decitabine; first compound 0.2 µM)	relative viability (Entinostat + Decitabine; first compound 0.6325 µM)	relative viability (Entinostat + Decitabine; first compound 2 µM)
NCI-H1651	0.784	0.786	0.723	0.821	0.551	0.619	0.705	0.584	0.333	0.237	0.672	0.736	0.604	0.456	0.666	0.824	0.609	0.558	0.19
NCI-H1437	1.31	1.29	1.2	1.27	0.856	0.31	0.253	0.181	0.132	0.108	0.3	0.328	0.28	0.265	0.522	0.436	0.357	0.267	0.217
NCI-H1975	1.01	0.857	0.896	0.886	0.498	0.516	0.352	0.249	0.122	0.115	0.29	0.288	0.289	0.273	0.358	0.35	0.301	0.169	0.155
BEN	0.681	0.609	0.594	0.451	0.72	0.476	0.478	0.443	0.356	0.401	0.806	0.811	0.712	0.615	0.774	0.956	0.657	0.447	0.345
NCI-H322M	0.919	0.918	0.935	0.849	0.686	0.505	0.555	0.519	0.461	0.448	0.648	0.65	0.59	0.504	0.742	0.722	0.787	0.725	0.665
SK-MES-1	0.934	1.17	0.929	0.792	0.662	0.849	0.826	0.925	0.673	0.324	1.11	1	0.999	0.647	0.362	0.36	0.434	0.303	0.331
HOP-62	1.12	1.2	1.12	1.02	0.568	0.355	0.312	0.304	0.228	0.152	0.306	0.363	0.325	0.31	0.272	0.248	0.248	0.213	0.132
HCC-366	0.946	0.931	0.913	0.892	0.714	0.0983	0.0503	0.0518	0.0518	0.0252	0.184	0.17	0.172	0.164	0.312	0.315	0.168	0.155	0.0591
NCI-H2405	0.99	1.04	1.07	1.02	0.981	0.736	0.78	0.607	0.524	0.319	1.13	1.1	0.949	0.857	0.693	0.784	0.686	0.501	0.511
